In US9308210B2, “Method for modulating canonical Wnt pathway using folate and inositol” (University of South Florida, priority 2009, dated 2016):
Counter-ions that a name gives are not always drawn.

Experiments:
[1] = system: Wnt pathway-associated and lipid metabolism genes; assay: Affymetrix microarray of E15.5 embryonic heart tissue after Li+ or HCys exposure with or without FA; type: in vivo, mouse
Text: The inbred C57B16 mouse strain (Jackson Laboratories, Bar Harbor, Me.) was used throughout this study. It has become recognized that mouse strains can differ in their response to environmental factors (Andrikopoulos et al., 2005; Barnabei et al., 2010; Funkat et al., 2004). Thus, the mouse strain being used should be taken into consideration when comparing different studies. Morning of detection of the vaginal sperm plug was defined as embryonic day (E) 0.5. Timed-pregnant mice were randomly allocated to receive intraperitoneally (i.p.) either a single dose of 100 μl of 6.25 mg/ml of lithium chloride (Li+), as previously determined (Chen et al., 2008), 100 μl of 75 μM HCys (Han et al., 2009), or 100 μl of 0.9% physiological saline (control group). […]
As in the previous studies, animal chow was supplemented with 10.5 mg/kg folic acid (FA), a concentration that has been used in trial human population studies (Czeizel et al., 2013; Han et al., 2009). […] On ED 6.75 (at 5:30 PM) experimental pregnant females received Li+ or HCys by an i.p. injection that the inventors reported induces a high incidence of valve and heart defects as detected by echocardiography at mid-gestation on ED 15.5 (Han et al., 2009).
The inventors analyzed for gene misexpression in the embryonic heart on E15.5 of gestation, i.e., over a week after the acute exposures. […]

E15.5 mouse hearts = assay: Histology of HCy-exposed E15.5 mouse hearts; type: in vivo; settings: single HCy exposure on E6.75
Experimental: Li- and HCy-exposed embryos, and control NaCl-exposed embryos, were fixed in 4% paraformaldehyde in phosphate buffered saline (PBS, pH 7.4) and paraffin sectioned. Sections were stained with hematoxylin-eosin, and some were stained with Toluidine Blue, and examined. Cardiac regions were analyzed for the presence of any obvious malformations using a Nikon SMZ1500 fluorescent stereomicroscope, and digitized images were obtained using a Nikon DS-L2 camera unit.
Malformed and small aortic valves (AoV in H) and pulmonary valves (PV in I) were apparent. […] This was exemplified by a post-stenotic dilatation of the pulmonary artery, apparent in FIG. 12L. […] In summary, in addition to the general cardiac hypertrophy, the viable cardiac anomalies that were observed on E15.5 following a single HCy exposure on E6.75 related primarily to derivatives of the SHF, that is the outflow, the right ventricle, and the tricuspid and SL valves.

[2] = system: wound area of mouse dorsum; assay: Mouse 3-mm excisional wound model with topical creams (FN, β-catenin, Lgr6 localization); type: in vivo; settings: higher folate diet 10 mg/kg from one week prior to wounding
Text: For the mouse studies the animals were divided by random assignment into experimental groups, using both sexes. Folic acid and folic acid/myo-inositol in combination were topically administered to the wound directly with an inert vanishing cream (provided by Carrollwood Pharmacy) as the vehicle of administration or also in combination with an orally administered dietary folic acid supplement. […] The creams contained (i) FA only; two doses of […] combination of higher MI to FA ratio, (iii) a combination of lower MI to FA ratio, (iv) MI only and (v) vehicle control cream. […] The control animals were maintained on normal animal chow containing 3.3 mg/kg FA to maintain health of the animals. After wounding, animals were housed separately and maintained on their respective folate diets. The animals were maintained in cages that were wood chip free on a dust free base for the first several days, to prevent bedding and bedding dust from getting into the freshly made wounds to lessen chances of infection. The animals were anesthetized using isoflurane inhalation. One 3-mm excisional circular wound was made using a dermal biopsy punch, followed by application of the experimental or control topical cream on the wound. The excised area remained uncovered and healing was closely monitored daily until wound was closed. At day 15 after wounding, the animal was euthanized. […]

With `N[C@H]1CCSC1=O` [HCy, L-homocysteine thiolactone hydrochloride] as the compound, how does the “Wnt pathway-associated gene expression” value ([1]; E15.5 hearts after acute exposure at E6.75) read?
Its value is “significantly misexpressed”.

And the “cardiac pathology on E15.5” value (E15.5 mouse hearts)?
Its value is “right and left side cardiac hypertrophy”.

Which results are given for `Nc1nc2ncc(CNc3ccc(C(=O)N[C@@H](CCC(=O)O)C(=O)O)cc3)nc2c(=O)[nH]1` [FA, folic acid]?
changes in lipid metabolism gene expression with high FA supplementation ([1]; Li or HCys exposure, FA 10.5 mg/kg diet): prevented; healing with dietary supplementation [2]: no differences in healing
